Measured values reported in ChEMBL document CHEMBL4507286 (2021).
Active and inactive are the calls of the source. The rule behind the calls is not given here.

What was measured:
[1] = biological target: Sigma non-opioid intracellular receptor 1 (Homo sapiens) (UniProt Q99720); details: Compound concentration 10.0 uM
[2] = biological target: GABA-A receptor; anion channel (Rattus norvegicus) (UniProt O09028+P15431+P18506+P18508+P19969+P20236+P23574+P23576+P28471+P28473+P30191+P62813+P63079+P63138+Q91ZM7+Q9ES14); details: Compound concentration 10.0 uM
[3] = biological target: Alpha-1D adrenergic receptor (Homo sapiens) (UniProt P25100); details: Compound concentration 10.0 uM
[4] = biological target: D(2) dopamine receptor (Homo sapiens) (UniProt P14416); details: Compound concentration 10.0 uM
[5] = test system: Receptor-type tyrosine-protein kinase FLT3 (Homo sapiens), P36888 [UNDEFINED MUTATION]
Chain of Receptor-type tyrosine-protein kinase FLT3 (Homo sapiens), P36888 [UNDEFINED MUTATION] (P36888 whole entry, looked up, change not shown): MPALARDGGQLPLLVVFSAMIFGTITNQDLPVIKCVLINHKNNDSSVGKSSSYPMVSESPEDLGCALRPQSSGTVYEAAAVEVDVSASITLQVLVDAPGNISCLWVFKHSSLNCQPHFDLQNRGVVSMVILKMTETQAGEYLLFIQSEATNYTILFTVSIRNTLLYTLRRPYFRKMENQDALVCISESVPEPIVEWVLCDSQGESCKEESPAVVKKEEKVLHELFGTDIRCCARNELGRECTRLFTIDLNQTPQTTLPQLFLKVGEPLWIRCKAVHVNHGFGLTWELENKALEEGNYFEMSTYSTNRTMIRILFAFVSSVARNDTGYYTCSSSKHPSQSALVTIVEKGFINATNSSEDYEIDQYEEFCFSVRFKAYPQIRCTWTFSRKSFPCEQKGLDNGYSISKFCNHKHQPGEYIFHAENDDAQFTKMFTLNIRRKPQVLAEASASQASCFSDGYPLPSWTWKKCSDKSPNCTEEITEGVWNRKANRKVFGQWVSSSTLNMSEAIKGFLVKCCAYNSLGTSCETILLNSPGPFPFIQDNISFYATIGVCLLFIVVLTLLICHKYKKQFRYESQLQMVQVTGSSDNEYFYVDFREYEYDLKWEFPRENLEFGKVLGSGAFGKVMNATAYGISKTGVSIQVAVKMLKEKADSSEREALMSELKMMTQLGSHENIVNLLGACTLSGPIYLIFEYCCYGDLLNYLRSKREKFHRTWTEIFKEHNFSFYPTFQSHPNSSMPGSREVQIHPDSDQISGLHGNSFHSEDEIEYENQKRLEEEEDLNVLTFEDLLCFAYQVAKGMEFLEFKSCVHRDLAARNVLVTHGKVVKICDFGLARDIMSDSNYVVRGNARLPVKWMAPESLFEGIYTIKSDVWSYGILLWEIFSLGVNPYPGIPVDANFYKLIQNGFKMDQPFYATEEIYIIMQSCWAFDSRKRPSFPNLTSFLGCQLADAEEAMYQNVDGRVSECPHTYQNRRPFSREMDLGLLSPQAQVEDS

[6] = biological target: 5-hydroxytryptamine receptor 2B (Homo sapiens, UniProt P41595); assay: GPCRScan assay: inhibition of 5-HT2B; design: radioligand conc. used [nm] 1.0 – 2.0, parental cells stable HEK
[7] = biological target: 5-hydroxytryptamine receptor 1E (Homo sapiens) (UniProt P28566); details: Compound concentration 10.0 uM
[8] = biological target: Vascular endothelial growth factor receptor 2 (Homo sapiens) (UniProt P35968)
Chain of Vascular endothelial growth factor receptor 2 (Homo sapiens) (P35968 whole entry): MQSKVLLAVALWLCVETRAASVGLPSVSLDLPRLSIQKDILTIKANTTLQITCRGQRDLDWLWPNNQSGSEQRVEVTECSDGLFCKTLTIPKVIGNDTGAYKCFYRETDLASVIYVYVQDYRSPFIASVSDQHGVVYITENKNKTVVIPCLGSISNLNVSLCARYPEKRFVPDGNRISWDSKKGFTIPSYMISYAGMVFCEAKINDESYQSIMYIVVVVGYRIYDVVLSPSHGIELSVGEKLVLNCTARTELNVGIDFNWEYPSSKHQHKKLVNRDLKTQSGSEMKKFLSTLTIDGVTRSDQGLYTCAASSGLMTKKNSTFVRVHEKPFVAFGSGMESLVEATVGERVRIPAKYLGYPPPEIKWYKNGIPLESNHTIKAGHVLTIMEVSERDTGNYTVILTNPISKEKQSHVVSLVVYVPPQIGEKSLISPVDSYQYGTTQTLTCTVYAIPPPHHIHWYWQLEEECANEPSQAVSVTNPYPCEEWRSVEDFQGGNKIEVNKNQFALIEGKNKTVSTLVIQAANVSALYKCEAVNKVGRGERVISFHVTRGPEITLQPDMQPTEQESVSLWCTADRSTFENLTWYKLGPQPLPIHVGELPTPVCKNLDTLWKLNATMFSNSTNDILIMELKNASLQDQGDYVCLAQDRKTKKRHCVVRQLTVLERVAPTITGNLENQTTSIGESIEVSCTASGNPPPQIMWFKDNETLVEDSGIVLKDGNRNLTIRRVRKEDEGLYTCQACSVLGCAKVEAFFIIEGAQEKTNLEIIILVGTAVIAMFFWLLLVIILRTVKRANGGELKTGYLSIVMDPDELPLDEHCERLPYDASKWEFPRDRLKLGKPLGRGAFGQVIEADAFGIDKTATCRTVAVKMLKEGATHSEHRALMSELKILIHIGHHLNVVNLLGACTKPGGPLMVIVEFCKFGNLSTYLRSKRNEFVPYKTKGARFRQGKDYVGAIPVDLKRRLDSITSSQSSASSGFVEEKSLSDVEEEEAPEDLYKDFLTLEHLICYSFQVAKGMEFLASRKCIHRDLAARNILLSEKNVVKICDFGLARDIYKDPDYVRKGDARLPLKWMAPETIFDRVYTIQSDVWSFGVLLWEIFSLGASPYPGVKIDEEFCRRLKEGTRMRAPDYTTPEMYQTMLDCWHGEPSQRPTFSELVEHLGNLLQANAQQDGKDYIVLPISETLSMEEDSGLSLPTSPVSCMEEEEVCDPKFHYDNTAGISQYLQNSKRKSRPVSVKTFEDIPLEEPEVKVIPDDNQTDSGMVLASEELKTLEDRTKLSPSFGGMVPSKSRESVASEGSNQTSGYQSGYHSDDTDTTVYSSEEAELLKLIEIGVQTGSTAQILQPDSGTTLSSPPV

[9] = biological target: Cyclin-dependent kinase 8 (Homo sapiens) (UniProt P49336)
Chain of Cyclin-dependent kinase 8 (Homo sapiens) (P49336 whole entry): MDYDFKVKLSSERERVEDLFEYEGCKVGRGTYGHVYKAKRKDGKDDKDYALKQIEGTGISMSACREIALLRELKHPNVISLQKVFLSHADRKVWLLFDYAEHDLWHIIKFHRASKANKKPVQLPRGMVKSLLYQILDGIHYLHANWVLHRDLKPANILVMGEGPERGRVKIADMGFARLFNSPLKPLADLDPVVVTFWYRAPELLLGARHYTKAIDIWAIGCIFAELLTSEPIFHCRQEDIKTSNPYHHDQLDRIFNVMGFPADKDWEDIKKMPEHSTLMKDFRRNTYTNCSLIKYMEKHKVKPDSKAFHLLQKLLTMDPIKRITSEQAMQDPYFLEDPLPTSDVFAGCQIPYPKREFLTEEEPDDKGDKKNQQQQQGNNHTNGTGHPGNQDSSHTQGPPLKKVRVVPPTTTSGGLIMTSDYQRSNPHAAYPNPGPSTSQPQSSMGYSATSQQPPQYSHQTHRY

[10] = biological target: Delta-type opioid receptor (Homo sapiens) (UniProt P41143); details: Compound concentration 10.0 uM
[11] = biological target: G protein-coupled receptor kinase 4 (Homo sapiens) (UniProt P32298)
[12] = biological target: 5-hydroxytryptamine receptor 5A (Homo sapiens) (UniProt P47898); details: Compound concentration 10.0 uM
Chain of 5-hydroxytryptamine receptor 5A (Homo sapiens) (P47898 whole entry): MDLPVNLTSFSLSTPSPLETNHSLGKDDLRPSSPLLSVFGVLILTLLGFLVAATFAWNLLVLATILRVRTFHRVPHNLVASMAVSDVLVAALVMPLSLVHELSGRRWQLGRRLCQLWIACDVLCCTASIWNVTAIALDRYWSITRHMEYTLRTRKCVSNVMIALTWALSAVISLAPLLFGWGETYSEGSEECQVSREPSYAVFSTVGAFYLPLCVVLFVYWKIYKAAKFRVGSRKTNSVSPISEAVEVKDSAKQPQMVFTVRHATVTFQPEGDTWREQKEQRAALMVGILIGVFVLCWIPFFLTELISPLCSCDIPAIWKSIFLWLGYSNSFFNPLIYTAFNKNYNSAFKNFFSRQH

[13] = biological target: Serine/threonine-protein kinase PLK4 (Homo sapiens) (UniProt O00444)
Chain of Serine/threonine-protein kinase PLK4 (Homo sapiens) (O00444 whole entry): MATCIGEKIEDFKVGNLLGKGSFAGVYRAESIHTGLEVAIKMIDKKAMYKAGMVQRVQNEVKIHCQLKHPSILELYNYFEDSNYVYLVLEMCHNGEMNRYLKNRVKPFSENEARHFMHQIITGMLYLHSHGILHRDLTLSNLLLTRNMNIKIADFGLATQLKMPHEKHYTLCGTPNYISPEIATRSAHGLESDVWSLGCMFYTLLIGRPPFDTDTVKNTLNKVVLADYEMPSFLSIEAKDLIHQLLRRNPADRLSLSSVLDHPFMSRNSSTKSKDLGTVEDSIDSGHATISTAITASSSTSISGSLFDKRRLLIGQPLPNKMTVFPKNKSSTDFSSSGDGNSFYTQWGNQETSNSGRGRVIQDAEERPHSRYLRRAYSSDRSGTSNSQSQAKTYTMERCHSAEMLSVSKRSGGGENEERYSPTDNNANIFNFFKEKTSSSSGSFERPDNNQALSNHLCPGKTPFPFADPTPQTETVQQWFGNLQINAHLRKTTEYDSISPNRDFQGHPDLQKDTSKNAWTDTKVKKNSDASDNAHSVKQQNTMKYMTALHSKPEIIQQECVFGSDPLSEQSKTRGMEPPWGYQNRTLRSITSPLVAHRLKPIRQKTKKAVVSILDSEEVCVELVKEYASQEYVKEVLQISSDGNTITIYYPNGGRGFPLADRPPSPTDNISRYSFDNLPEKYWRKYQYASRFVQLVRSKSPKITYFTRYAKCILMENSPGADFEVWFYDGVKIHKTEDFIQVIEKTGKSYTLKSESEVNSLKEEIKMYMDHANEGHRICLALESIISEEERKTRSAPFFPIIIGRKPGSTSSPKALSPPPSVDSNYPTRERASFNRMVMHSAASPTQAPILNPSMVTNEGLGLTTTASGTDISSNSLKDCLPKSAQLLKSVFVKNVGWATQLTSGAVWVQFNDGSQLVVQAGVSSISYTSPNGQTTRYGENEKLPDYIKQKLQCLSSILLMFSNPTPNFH

[14] = biological target: Phosphatidylinositol 4-phosphate 5-kinase type-1 alpha (Homo sapiens) (UniProt Q99755)
Chain of Phosphatidylinositol 4-phosphate 5-kinase type-1 alpha (Homo sapiens) (Q99755 whole entry): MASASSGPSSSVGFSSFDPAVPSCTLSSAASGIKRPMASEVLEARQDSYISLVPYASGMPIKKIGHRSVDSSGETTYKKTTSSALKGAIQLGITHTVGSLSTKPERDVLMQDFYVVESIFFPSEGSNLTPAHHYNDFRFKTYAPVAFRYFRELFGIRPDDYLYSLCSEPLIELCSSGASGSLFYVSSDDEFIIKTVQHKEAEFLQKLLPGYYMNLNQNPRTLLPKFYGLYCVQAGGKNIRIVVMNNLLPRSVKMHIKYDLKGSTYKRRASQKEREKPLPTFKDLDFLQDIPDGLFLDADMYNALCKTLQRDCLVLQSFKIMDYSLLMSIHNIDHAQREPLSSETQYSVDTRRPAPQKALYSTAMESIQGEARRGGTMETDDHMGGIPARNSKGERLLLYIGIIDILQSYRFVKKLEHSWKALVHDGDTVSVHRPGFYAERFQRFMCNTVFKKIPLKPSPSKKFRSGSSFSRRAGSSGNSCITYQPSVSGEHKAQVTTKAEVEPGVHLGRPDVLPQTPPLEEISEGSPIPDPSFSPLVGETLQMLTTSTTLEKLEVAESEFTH

[15] = biological target: Sigma intracellular receptor 2 (Homo sapiens) (UniProt Q5BJF2); details: Compound concentration 10.0 uM
[16] = biological target: T1, Mitogen-activated protein kinase 1 (Homo sapiens, UniProt P28482); assay: Cell Assay: Inhibition of RSK phosphorylation (pRSK A375SM); assay type: cell-based, A375-SM
T1 sequence (P28482 whole entry): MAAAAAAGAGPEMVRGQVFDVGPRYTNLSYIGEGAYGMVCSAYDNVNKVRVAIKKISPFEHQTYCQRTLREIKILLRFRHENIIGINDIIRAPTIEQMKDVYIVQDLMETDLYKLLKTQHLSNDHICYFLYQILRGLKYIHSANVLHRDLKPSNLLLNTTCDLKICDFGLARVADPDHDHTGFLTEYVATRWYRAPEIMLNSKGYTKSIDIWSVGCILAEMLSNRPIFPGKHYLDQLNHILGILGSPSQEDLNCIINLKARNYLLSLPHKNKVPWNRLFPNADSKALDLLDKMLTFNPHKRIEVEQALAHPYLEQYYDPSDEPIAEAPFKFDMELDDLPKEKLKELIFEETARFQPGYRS

[17] = biological target: Cyclin-dependent kinase 5 (Homo sapiens, UniProt Q00535); assay: Invitrogen kinase screen (CDK5)
[18] = biological target: T1, Mitogen-activated protein kinase 1; assay: Invitrogen kinase screen (MAPK1)
[19] = biological target: Serine/threonine-protein kinase ULK1 (Homo sapiens, UniProt O75385); assay: Inhibition of ULK1 at compound concentration of 10.0 uM using the ScanMax (DiscoverX)
[20] = biological target: T1, Mitogen-activated protein kinase 1; assay: Cell Assay: Inhibition of RSK phosphorylation (pRSK with 40% human serum)
[21] = biological target: 5-hydroxytryptamine receptor 1B (Homo sapiens) (UniProt P28222); details: Compound concentration 10.0 uM
[22] = biological target: Dual specificity protein kinase CLK2 (Homo sapiens, UniProt P49760); assay: Invitrogen kinase screen (CLK2)
[23] = biological target: cGMP-dependent protein kinase 2 (Homo sapiens, UniProt Q13237); assay: Invitrogen kinase screen (PRKG2)
[24] = biological target: Cyclin-dependent kinase 7 (Homo sapiens, UniProt P50613); assay: Inhibition of CDK7 at compound concentration of 10.0 uM using the ScanMax (DiscoverX)
[25] = NanoBRET (MAPK3, SGC Frankfurt); details: Homo sapiens
[26] = biological target: Dual specificity protein kinase CLK4 (Homo sapiens, UniProt Q9HAZ1); assay: Inhibition of CLK4 at compound concentration of 10.0 uM using the ScanMax (DiscoverX)
[27] = biological target: T1, Mitogen-activated protein kinase 1; assay: Cell Assay: Inhibition of RSK phosphorylation (pRSK with 40% mouse serum )
[28] = biological target: Serine/threonine-protein kinase haspin (Homo sapiens, UniProt Q8TF76); assay: Inhibition of GSG2 at compound concentration of 10.0 uM using the ScanMax (DiscoverX)
[29] = biological target: Serine/threonine-protein kinase Sgk1 (Homo sapiens, UniProt O00141); assay: Invitrogen kinase screen (SGK)
[30] = biological target: Beta-2 adrenergic receptor (Homo sapiens) (UniProt P07550); details: Compound concentration 10.0 uM
[31] = NanoBRET (MAPK1, SGC Frankfurt); details: Homo sapiens
[32] = biological target: Serine/threonine-protein kinase TBK1 (Homo sapiens, UniProt Q9UHD2); assay: Invitrogen kinase screen (TBK1)
[33] = biological target: G protein-coupled receptor kinase 3 (Homo sapiens, UniProt P35626); assay: Inhibition of GRK3 at compound concentration of 10.0 uM using the ScanMax (DiscoverX)
[34] = biological target: 5-hydroxytryptamine receptor 6 (Homo sapiens) (UniProt P50406); details: Compound concentration 10.0 uM
[35] = biological target: Muscarinic acetylcholine receptor M1 (Homo sapiens) (UniProt P11229); details: Compound concentration 10.0 uM
[36] = biological target: Glycogen synthase kinase-3 beta (Homo sapiens, UniProt P49841); assay: Invitrogen kinase screen (GSK3B)
[37] = biological target: Serine/threonine-protein kinase MARK2 (Homo sapiens, UniProt Q7KZI7); assay: Invitrogen kinase screen (MARK2)
[38] = biological target: Glycogen synthase kinase-3 alpha (Homo sapiens, UniProt P49840); assay: Invitrogen kinase screen (GSK3A)
[39] = biological target: Serine/threonine-protein kinase 26 (Homo sapiens, UniProt Q9P289); assay: Invitrogen kinase screen (STK26)
[40] = biological target: T1, Mitogen-activated protein kinase 1
[41] = biological target: Cyclin-dependent kinase 2 (Homo sapiens, UniProt P24941); assay: Invitrogen kinase screen (CDK2)
[42] = Compound concentration 1000.0 nM
[43] = Compound concentration 100.0 nM

Structure (SMILES): C[C@H](NC(=O)Nc1cc2[nH]ncc2c(CO)n1)c1ccccn1 [ERKi-NC]
- inhibition [1]: 12.8%
- inhibition [2]: 25.5%
- inhibition [3]: -7.9%
- inhibition [4]: 17.7%
- residual activity [5, 42]: 100%
- Ki [6]: 538 nM
- inhibition [7]: -8.44%
- residual activity [8, 42]: 100%
- residual activity [9, 42]: 100%
- inhibition [10]: 2.71%
- residual activity [11, 42]: 85.2%
- inhibition [12]: 9.46%
- residual activity [13, 42]: 100%
- residual activity [14, 42]: 100%
- inhibition [15]: 20.8%

Structure (SMILES): C[C@@H](NC(=O)Nc1cc2[nH]ncc2c(CO)n1)c1ccccc1 [ERKi]
- IC50 [16]: 280 nM (active)
- IC50 [17]: 1200 nM (not active)
- IC50 [18]: 4 nM (active)
- Kd [19]: 140 nM (not active)
- IC50 [20]: 225 nM (active)
- inhibition [21]: 4.23%
- IC50 [22]: 940 nM (not active)
- residual activity [5, 43]: 100%
- IC50 [23]: 950 nM (not active)
- Kd [24]: 230 nM (not active)
- EC50 [25]: 32 nM (active)
- IC50 [25]: 6690 nM
- Kd [26]: 230 nM (not active)
- IC50 [27]: 788 nM (active)
- Kd [28]: 130 nM (not active)
- IC50 [29]: 270 nM (not active)
- inhibition [30]: 1.36%
- EC50 [31]: 95 nM (active)
- IC50 [31]: 850 nM (active)
- residual activity [8, 43]: 100%
- IC50 [32]: 770 nM (not active)
- Kd [33]: 140 nM (not active)
- inhibition [34]: 8.67%
- residual activity [9, 43]: 76.1%
- inhibition [35]: -1.16%
- IC50 [36]: 540 nM (not active)
- IC50 [37]: 1400 nM (not active)
- IC50 [38]: 210 nM (not active)
- IC50 [39]: 880 nM (not active)
- residual activity [11, 43]: 100%
- Kd [40]: 4.8 nM (active)
- inhibition [12]: 1.39%
- residual activity [13, 43]: 71.6%
- residual activity [14, 43]: 84.5%
- IC50 [41]: 790 nM (not active)
